{"source": "patent US20230404998A1", "about": "“Combination Therapies for Treating Cancer” (ASCENTAGE PHARMA (SUZHOU) CO., LTD., priority 2020, published 2023)", "key": {"PD-L1 in RCC cells": {"tested_on": "PD-L1 in RCC cells", "test": "PD-L1 expression in RCC cells", "assay_type": "cell-based"}, "RAG": {"tested_on": "RAG", "test": "Antiproliferative activity in RCC line RAG", "assay_type": "cell-based", "conditions": "Mus musculus; murine RCC line RAG"}}}
{"smiles": "Cc1ccc(C(=O)Nc2ccc(CN3CCN(C)CC3)c(C(F)(F)F)c2)cc1C#Cc1cnc2[nH]ncc2c1", "note": "[HQP1351, 3-(2-(1H-pyrazolo[3,4-b]pyridin-5-yl)ethynyl)-4-methyl-N-(4-((4-methylpiperazin-1-yl)methyl)-3-(trifluoromethyl)phenyl)-benzamide]", "values": [{"measurement": "Expression of PD-L1 in RCC cells", "setting": "PD-L1 in RCC cells", "result": "reduced expression of PD-L1"}, {"measurement": "IC50", "setting": "RAG", "result": 53, "unit": "nM"}]}
